Laboratory results reported in the NIST ThermoML archive (doi:10.1016/j.jct.2018.07.002).
Numbers after ± are expanded uncertainties.

Legend:
[1] = molar heat capacity at constant pressure; conditions: 100 kPa, Liquid, isoperibol calorimetry
[2] = excess molar enthalpy (molar enthalpy of mixing); xn = mol fraction of the nth substance listed; conditions: 313.15 K, 100 kPa, Liquid, Power-compensation calorimetry

Compound	molar heat capacity at constant pressure ([1]; 303.15 K) [J/K/mol]	molar heat capacity at constant pressure ([1]; 313.15 K) [J/K/mol]	molar heat capacity at constant pressure ([1]; 323.15 K) [J/K/mol]	molar heat capacity at constant pressure ([1]; 333.15 K) [J/K/mol]	molar heat capacity at constant pressure ([1]; 343.15 K) [J/K/mol]	molar heat capacity at constant pressure ([1]; 353.15 K) [J/K/mol]	molar heat capacity at constant pressure ([1]; 363.15 K) [J/K/mol]	molar heat capacity at constant pressure ([1]; 373.15 K) [J/K/mol]	excess molar enthalpy ([2]; x1 = 0.017) [kcal/mol]	excess molar enthalpy ([2]; x1 = 0.019) [kcal/mol]	excess molar enthalpy ([2]; x1 = 0.023) [kcal/mol]	excess molar enthalpy ([2]; x1 = 0.027) [kcal/mol]	excess molar enthalpy ([2]; x1 = 0.25) [kcal/mol]	excess molar enthalpy ([2]; x1 = 0.5) [kcal/mol]
CCOP(=O)([O-])OCC.CCn1cc[n+](C)c1 [1-ethyl-3-methylimidazolium diethyl phosphate]	504.73 ± 32	507.38 ± 32	510.02 ± 32	515.3 ± 32	523.23 ± 32	528.52 ± 32	536.44 ± 32	541.73 ± 32	–	–	–	–	–	–
CCOP(=O)([O-])OCC.CCn1cc[n+](C)c1 [1-ethyl-3-methylimidazolium diethyl phosphate] + O	–	–	–	–	–	–	–	–	-0.112 ± 0.00454	-0.13 ± 0.00526	-0.154 ± 0.00621	-0.181 ± 0.00741	-1.19 ± 0.0478	-1.26 ± 0.0502
